Measured values reported in PubChem BioAssay AID1919001 (Molecular Pharmacology Branch, DTP, NCI, 2023).
Values joined by “and” are separate entries in the source; they are usually repeats but may differ in a detail not shown here. Equal entries are not always repeated. Values belong to the molecule of their own block, whether it stands above or below them.

Test system: 699152-130-R-J1-PDC complex spheroid growth
Test: Anticancer human tumor 699152-130-R-J1-PDC patient-derived pancreatic carcinoma cell line growth inhibition [AhR]
Details: for viability, T/C: stronger effect = lower value
Procedure, shortened: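 Complex tumor spheroids co-cultured with HUVEC and human MSC stroma; AhR antagonists tested in combination with standard-of-care and investigational agents. Top concentration at or near clinical Cmax (else 10 microM), half-log dilutions; growth expressed as percent test/control.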

[1] = curve of first compound, second compound 0.1 µM
[2] = curve of first compound, second compound 0.316 µM
[3] = curve of first compound, second compound 1 µM
[4] = curve of first compound, second compound 3.16 µM
[5] = curve of first compound, second compound 10 µM
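Note: compound exposure lasted 7 days after spheroids had grown for 3 days.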

- IC50 (curve of compound): 0.0604 µM and 0.02 µM and 0.0277 µM
SMILES: CCc1c2c(nc3ccc(O)cc13)-c1cc3c(c(=O)n1C2)COC(=O)[C@]3(O)CC
- viability, T/C (compound 0.000949 µM): 85.1% and 90.1% and 88.5%
- viability, T/C (compound 0.003 µM): 86.8% and 87.7% and 95.1%
- viability, T/C (compound 0.00949 µM): 66.3% and 61.5% and 59.9%
- viability, T/C (compound 0.03 µM): 55.8% and 44.3% and 57.9%
- viability, T/C (compound 0.0949 µM): 49% and 43.6% and 52%
- viability, T/C (compound 0.3 µM): 33.9% and 33.8% and 38%

- IC50 [1]: > 10 µM
- IC50 [2]: > 10 µM
- IC50 [3]: > 10 µM
- IC50 [4]: > 10 µM
- IC50 [5]: > 10 µM
SMILES: O=C(c1cc(Cc2n[nH]c(=O)c3ccccc23)ccc1F)N1CCN(C(=O)C2CC2)CC1 + CC(CO)NC(=O)c1cc(-c2ccc(Cl)cc2)nn(-c2cnn(C)c2)c1=O
- viability, T/C (second compound 0.1 µM, first compound 0.0316 µM): 85.1%
- viability, T/C (second compound 0.1 µM, first compound 0.1 µM): 107%
- viability, T/C (second compound 0.1 µM, first compound 0.316 µM): 93.3%
- viability, T/C (second compound 0.1 µM, first compound 1 µM): 81.8%
- viability, T/C (second compound 0.1 µM, first compound 3.16 µM): 97%
- viability, T/C (second compound 0.1 µM, first compound 10 µM): 89.5%
- viability, T/C (second compound 0.316 µM, first compound 0.0316 µM): 93%
- viability, T/C (second compound 0.316 µM, first compound 0.1 µM): 88.3%
- viability, T/C (second compound 0.316 µM, first compound 0.316 µM): 88.8%
- viability, T/C (second compound 0.316 µM, first compound 1 µM): 87.7%
- viability, T/C (second compound 0.316 µM, first compound 3.16 µM): 77.3%
- viability, T/C (second compound 0.316 µM, first compound 10 µM): 78%
- viability, T/C (second compound 1 µM, first compound 0.0316 µM): 87.6%
- viability, T/C (second compound 1 µM, first compound 0.1 µM): 95.9%
- viability, T/C (second compound 1 µM, first compound 0.316 µM): 93.4%
- viability, T/C (second compound 1 µM, first compound 1 µM): 86.6%
- viability, T/C (second compound 1 µM, first compound 3.16 µM): 85.5%
- viability, T/C (second compound 1 µM, first compound 10 µM): 77.4%
- viability, T/C (second compound 3.16 µM, first compound 0.0316 µM): 82.8%
- viability, T/C (second compound 3.16 µM, first compound 0.1 µM): 93.1%
- viability, T/C (second compound 3.16 µM, first compound 0.316 µM): 85.5%
- viability, T/C (second compound 3.16 µM, first compound 1 µM): 80.5%
- viability, T/C (second compound 3.16 µM, first compound 3.16 µM): 65.6%
- viability, T/C (second compound 3.16 µM, first compound 10 µM): 69.7%
- viability, T/C (second compound 10 µM, first compound 0.0316 µM): 84.3%
- viability, T/C (second compound 10 µM, first compound 0.1 µM): 83.1%
- viability, T/C (second compound 10 µM, first compound 0.316 µM): 80%
- viability, T/C (second compound 10 µM, first compound 1 µM): 75.3%
- viability, T/C (second compound 10 µM, first compound 3.16 µM): 79.3%
- viability, T/C (second compound 10 µM, first compound 10 µM): 69.9%

- IC50 [1]: > 3 µM
- IC50 [2]: > 3 µM
- IC50 [3]: > 3 µM
- IC50 [4]: > 3 µM
- IC50 [5]: < 0.00949 µM
SMILES: CCN(c1cc(-c2ccc(CN3CCOCC3)cc2)cc(C(=O)NCc2c(C)cc(C)[nH]c2=O)c1C)C1CCOCC1 + Cc1cncc(-c2nc(NCCc3c[nH]c4ccccc34)c3ncn(C(C)C)c3n2)c1
- viability, T/C (second compound 0.1 µM, first compound 0.00949 µM): 101%
- viability, T/C (second compound 0.1 µM, first compound 0.03 µM): 110%
- viability, T/C (second compound 0.1 µM, first compound 0.0949 µM): 113%
- viability, T/C (second compound 0.1 µM, first compound 0.3 µM): 120%
- viability, T/C (second compound 0.1 µM, first compound 0.949 µM): 98.2%
- viability, T/C (second compound 0.1 µM, first compound 3 µM): 120%
- viability, T/C (second compound 0.316 µM, first compound 0.00949 µM): 88.9%
- viability, T/C (second compound 0.316 µM, first compound 0.03 µM): 94.4%
- viability, T/C (second compound 0.316 µM, first compound 0.0949 µM): 112%
- viability, T/C (second compound 0.316 µM, first compound 0.3 µM): 98.9%
- viability, T/C (second compound 0.316 µM, first compound 0.949 µM): 103%
- viability, T/C (second compound 0.316 µM, first compound 3 µM): 98.7%
- viability, T/C (second compound 1 µM, first compound 0.00949 µM): 121%
- viability, T/C (second compound 1 µM, first compound 0.03 µM): 116%
- viability, T/C (second compound 1 µM, first compound 0.0949 µM): 116%
- viability, T/C (second compound 1 µM, first compound 0.3 µM): 131%
- viability, T/C (second compound 1 µM, first compound 0.949 µM): 119%
- viability, T/C (second compound 1 µM, first compound 3 µM): 112%
- viability, T/C (second compound 3.16 µM, first compound 0.00949 µM): 110%
- viability, T/C (second compound 3.16 µM, first compound 0.03 µM): 106%
- viability, T/C (second compound 3.16 µM, first compound 0.0949 µM): 114%
- viability, T/C (second compound 3.16 µM, first compound 0.3 µM): 116%
- viability, T/C (second compound 3.16 µM, first compound 0.949 µM): 114%
- viability, T/C (second compound 3.16 µM, first compound 3 µM): 112%
- viability, T/C (second compound 10 µM, first compound 0.00949 µM): 28.7%
- viability, T/C (second compound 10 µM, first compound 0.03 µM): 30.9%
- viability, T/C (second compound 10 µM, first compound 0.0949 µM): 28.9%
- viability, T/C (second compound 10 µM, first compound 0.3 µM): 23.5%
- viability, T/C (second compound 10 µM, first compound 0.949 µM): 22.4%
- viability, T/C (second compound 10 µM, first compound 3 µM): 11.3%
